Where a name gives a salt, the structure may show the parent alone.
target: GSK3β (Homo sapiens, UniProt P49841); experiment: Inhibitory activity against GSK3β (33P-ATP phosphorylation of prephosphorylated GS1 peptide, two protocols); format: biochemical
Method: Inhibitory Activity of the Medicament of the Present Invention Against GSK3β Two different protocols can be used. In a first protocol: 7.5 μM of prephosphorylated GS1 peptide and 10 μM ATP (containing 300,000 cpm of 33P-ATP) were incubated in 25 mM Tris-HCl, pH 7.5, 0.6 mM DTT, 6 mM MgCl2, 0.6 mM EGTA, 0.05 mg/ml BSA buffer for 1 hour at room temperature in the presence of GSK3beta (total reaction volume: 100 microliters). In a second protocol: 4.1 μM of prephosphorylated GS1 peptide and 42 μM ATP (containing 260,000 cpm 33P-ATP) were incubated in 80 mM Mes-NaOH, pH 6.5, 1 mM Mg acetate, 0.5 mM EGTA, 5 mM 2-mercaptoethanol, 0.02% Tween 20, 10% glycerol buffer for 2 hours at room temperature in the presence of GSK3beta. Inhibitors were solubilized in DMSO (final solvent concentration in the reaction medium, 1%). The reaction was stopped with 100 microliters of a solution made of 25 g polyphosphoric acid (85% P2O5), 126 ml 85% H3PO4, H2O to 500 ml and then diluted to 1:100 before use. An aliquot of the reaction mixture was then transferred to Whatman P81 cation exchange filters and rinsed with the solution described above. Incorporated 33P radioactivity was determined by liquid scintillation spectrometry. The phosphorylated GS-1 peptide had the following sequence: NH2-[…](P)EDEE-COOH.

Sequence of GSK3β (P49841 whole entry, species assumed): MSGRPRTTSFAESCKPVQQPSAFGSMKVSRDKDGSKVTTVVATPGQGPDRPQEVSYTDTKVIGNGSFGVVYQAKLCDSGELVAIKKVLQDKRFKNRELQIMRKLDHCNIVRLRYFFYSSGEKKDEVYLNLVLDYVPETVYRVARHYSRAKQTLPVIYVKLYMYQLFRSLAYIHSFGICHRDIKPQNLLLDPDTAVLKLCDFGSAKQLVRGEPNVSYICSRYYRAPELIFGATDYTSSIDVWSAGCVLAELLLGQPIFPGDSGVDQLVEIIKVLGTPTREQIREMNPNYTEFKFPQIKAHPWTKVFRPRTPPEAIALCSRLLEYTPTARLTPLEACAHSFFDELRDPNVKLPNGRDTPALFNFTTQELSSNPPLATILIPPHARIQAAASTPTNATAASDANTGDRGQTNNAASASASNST

IC50 [nM] | Structure (SMILES)
7 | O=C(CN1c2nc(-c3ccncc3)cc(=O)n2CCC1c1ccncc1)c1cccc(Br)c1 (stereo not shown) [Compound No. 15, 9-[2-(3-Bromo-phenyl)-2-oxo-ethyl]-2,8-dipyridin-4-yl-6,7,8,9-tetrahydro-pyrimido[1,2-a]pyrimidin-4-one hydrochloride (1:2)]

test system: not given; experiment: not given

melting point [°C] | Structure (SMILES)
170 to 172 | O=c1cc(-c2ccncc2)nc2n1CCC(c1ccccc1)N2CC(O)c1cccc(Br)c1 (stereo not shown) [compound 23, 9-[2-Hydroxy-2-(3-bromo-phenyl)-ethyl]-8-phenyl-2-pyridin-4-yl-6,7,8,9-tetrahydro-pyrimido[1,2-a]pyrimidin-4-one]
220 to 222 | O=c1cc(-c2ccncc2)nc2n1CCC(c1ccccc1)N2CC(O)c1ccc(Cl)cc1 (stereo not shown) [compound 24, 9-[2-Hydroxy-2-(4-chloro-phenyl)-ethyl]-8-phenyl-2-pyridin-4-yl-6,7,8,9-tetrahydro-pyrimido[1,2-a]pyrimidin-4-one]
218 to 220 | O=c1cc(-c2ccncc2)nc2n1CCC(c1ccncc1)N2CC(O)c1cccc(F)c1 (stereo not shown) [compound 25, 9-[2-(3-Fluoro-phenyl)-2-hydroxy-ethyl]-2,8-dipyridin-4-yl-6,7,8,9-tetrahydro-pyrimido[1,2-a]pyrimidin-4-one]
201 to 203 | O=c1cc(-c2ccncc2)nc2n1CCC(c1ccccc1)N2CC(O)c1ccc(F)cc1 (stereo not shown) [compound 26, 9-[2-Hydroxy-2-(4-fluoro-phenyl)-ethyl]-8-phenyl-2-pyridin-4-yl-6,7,8,9-tetrahydro-pyrimido[1,2-a]pyrimidin-4-one]
145 to 147 | O=c1cc(-c2ccncc2)nc2n1CCC(c1ccccc1)N2CC(O)c1ccc(-c2ccccc2)cc1 (stereo not shown) [compound 27, 9-[2-Hydroxy-2-(4-phenyl-phenyl)-ethyl]-8-phenyl-2-pyridin-4-yl-6,7,8,9-tetrahydro-pyrimido[1,2-a]pyrimidin-4-one]
190 to 192 | O=c1cc(-c2ccncc2)nc2n1CCC(c1ccccc1)N2CC(O)c1ccc2ccccc2c1 (stereo not shown) [compound 28, 9-[2-Hydroxy-2-naphthalen-2-yl-ethyl]-8-phenyl-2-pyridin-4-yl-6,7,8,9-tetrahydro-pyrimido[1,2-a]pyrimidin-4-one]

Reference: US8093256B2, “Use of 8-substituted-6,7,8,9-tetrahydropyrimido[1,2-a] pyrimidin-4-one derivatives” (Sanofi-Aventis, priority 2003, dated 2012)
